Measurements as given in patent US7579504B2, “ABCA1 elevating compounds” (Gilead Sciences, Inc., priority 2005, dated 2009).

Test system: ABCA1 mRNA
Assay: ABCA1 mRNA induction in THP-1 cells, QuantiGene branched DNA assay
Assay type: cell-based
Conditions: Homo sapiens, 18-20 hours, read-out: ABCA1 Induction Fold Increase over DMSO Vehicle
Description: Modulation of expression of ABCA1 mRNA levels by the compounds of the invention was determined in the following assays.
Induction of ABC1 in THP-1 cells, was measured using QuantiGene® branched DNA assay as per manufacturer's instructions. Cultures of THP-1 were grown to subconfluence in DMEM/10% FBS before replacement with DMEM/BSA and 10 and 3 μM concentrations of the test compounds in DMSO for 18-20 hours. After treatment of cells with compounds, the cells were lysed with lysis buffer at 37° C. for 20 minutes. The cell lysate and ABCA1 specific probe (Genospectra, Inc., Fremont, Calif.) mix were added to the 96 well capture plate and hybridized at 53° C. for 16-18 hours. The signal was amplified using the amplifier and label probes provided with the QuantiGene® assay followed by addition of a luminescent alkaline phosphatase substrate, dioxitane. Luminescence was quantified in Victor V plate reader.
Step 1 • Cells are lysed to release mRNA in the presence of target probes. Target mRNA from lysed cells was then captured by hybridization and transferred to the Capture Plate.
Step 2 • Signal amplification was performed by hybridization of the bDNA Amplifier and Label Probe.
Step 3 • Addition of chemiluminescence substrate yielded a QuantiGene® signal proportional to the amount of mRNA present in the sample.
Table 1 presents the relative fold increase in ABCA1 expression over DMSO for compounds of the invention when tested at a concentration of 10 μM.

With Cc1ccc(CNC(=O)[C@H]2CC[C@H](CN([C@@H](C)c3ccccc3)S(=O)(=O)c3ccccc3)CC2)cc1 [Compound 6, (4-{[((1S)-1-phenylethyl)(phenylsulfonyl)amino]methyl}cyclohexyl)-N-[(4-methylphenyl)methyl]carboxamide] the fold induction at 10 µM was 3.2.
Compound Cc1ccc(CNC(=O)C2CCC(CN(Cc3ccccc3)S(=O)(=O)c3cc(C(F)(F)F)cc(C(F)(F)F)c3)CC2)cc1 (stereo not drawn) [Compound 24, {4-[({[3,5-bis(trifluoromethyl)phenyl]sulfonyl}benzylamino)methyl]cyclohexyl}-N-[(4-methylphenyl)methyl]carboxamide] has a fold induction at 10 µM of 0.9.
Cc1ccc(CNC(=O)C2CCC(CN(Cc3ccccc3)S(=O)(=O)c3cc(Cl)ccc3Cl)CC2)cc1 (stereo not drawn) [Compound 27, [4-({[(2,5-dichlorophenyl)sulfonyl]benzylamino}methyl)cyclohexyl]-N-[(4-methylphenyl)methyl]carboxamide] gave a fold induction at 10 µM of 3.7.
In the case of Cc1ccc(CNC(=O)C2CCC(CN(Cc3ccccc3)S(=O)(=O)c3ccc(-c4ccccc4)cc3)CC2)cc1 (stereo not drawn) [Compound 48, N-[(4-methylphenyl)methyl][4-({benzyl[(4-phenylphenyl)sulfonyl]amino}methyl)cyclohexyl]carboxamide], the fold induction at 10 µM is reported as 2.9.
Compound Cc1ccc(CNC(=O)C2CCC(CN(Cc3ccccc3)S(=O)(=O)c3ccc(C)c(F)c3)CC2)cc1 (stereo not drawn) [Compound 39, [4-({[(3-fluoro-4-methylphenyl)sulfonyl]benzylamino}methyl)cyclohexyl]-N-[(4-methylphenyl)methyl]carboxamide] has a fold induction at 10 µM of 4.
Cc1ccc(CNC(=O)C2CCC(CN(Cc3ccccc3)S(=O)(=O)c3ccc(Cl)c(Cl)c3)CC2)cc1 (stereo not drawn) [Compound 42, [4-({[(3,4-dichlorophenyl)sulfonyl]benzylamino}methyl)cyclohexyl]-N-[(4-methylphenyl)methyl]carboxamide] was tested, and the fold induction at 10 µM was 2.6.
With Cc1ccc(CNC(=O)C2CCC(CN(Cc3ccccc3)S(=O)(=O)c3ccccc3C)CC2)cc1 (stereo not drawn) [Compound 9, N-[(4-methylphenyl)methyl][4-({[(2-methylphenyl)sulfonyl]benzylamino}methyl)cyclohexyl]carboxamide] the fold induction at 10 µM was 4.9.
With COc1cccc(S(=O)(=O)N(Cc2ccccc2)CC2CCC(C(=O)NCc3ccc(C)cc3)CC2)c1 (stereo not drawn) [Compound 7, [4-({[(3-methoxyphenyl)sulfonyl]benzylamino}methyl)cyclohexyl]-N-[(4-methylphenyl)methyl]carboxamide] the fold induction at 10 µM was 5.4.
In the case of Cc1ccc(CNC(=O)C2CCC(CN(Cc3ccccc3)S(=O)(=O)c3cccs3)CC2)cc1 (stereo not drawn) [Compound 15, N-[(4-methylphenyl)methyl](4-{[benzyl(2-thienylsulfonyl)amino]methyl}cyclohexyl)carboxamide], the fold induction at 10 µM is reported as 4.3.
Cc1ccc(CNC(=O)C2CCC(CN(Cc3ccccc3)S(=O)(=O)c3ccc4ccccc4c3)CC2)cc1 (stereo not drawn) [Compound 41, N-[(4-methylphenyl)methyl](4-{[(2-naphthylsulfonyl)benzylamino]methyl}cyclohexyl)carboxamide] showed a fold induction at 10 µM of 5.2.
For Cc1ccc(CNC(=O)C2CCC(CN(Cc3ccccc3)S(=O)(=O)c3ccc(Cl)cc3Cl)CC2)cc1 (stereo not drawn) [Compound 14, [4-({[(2,4-dichlorophenyl)sulfonyl]benzylamino}methyl)cyclohexyl]-N-[(4-methylphenyl)methyl]carboxamide], the fold induction at 10 µM was 3.5.
Cc1ccc(CNC(=O)C2CCC(CN(Cc3ccccc3)S(=O)(=O)c3c(F)c(F)c(F)c(F)c3F)CC2)cc1 (stereo not drawn) [Compound 37, N-[(4-methylphenyl)methyl][4-({[(2,3,4,5,6-pentafluorophenyl)sulfonyl]benzylamino}methyl)cyclohexyl]carboxamide] showed a fold induction at 10 µM of 3.
Cc1ccc(CNC(=O)C2CCC(CN(Cc3ccccc3)S(=O)(=O)c3cc(F)ccc3F)CC2)cc1 (stereo not drawn) [Compound 19, [4-({[(2,5-difluorophenyl)sulfonyl]benzylamino}methyl)cyclohexyl]-N-[(4-methylphenyl)methyl]carboxamide] showed a fold induction at 10 µM of 4.9.
Cc1ccc(CNC(=O)C2CCC(CN(Cc3ccccc3)S(=O)(=O)c3cc(F)ccc3C)CC2)cc1 (stereo not drawn) [Compound 26, [4-({[(5-fluoro-2-methylphenyl)sulfonyl]benzylamino}methyl)cyclohexyl]-N-[(4-methylphenyl)methyl]carboxamide] was tested, and the fold induction at 10 µM was 4.3.
Cc1ccc(CNC(=O)C2CCC(CN(Cc3ccccc3)S(=O)(=O)c3ccc(F)cc3C)CC2)cc1 (stereo not drawn) [Compound 33, [4-({[(4-fluoro-2-methylphenyl)sulfonyl]benzylamino}methyl)cyclohexyl]-N-[(4-methylphenyl)methyl]carboxamide] gave a fold induction at 10 µM of 4.1.
Cc1ccc(CNC(=O)C2CCC(CN(Cc3ccccc3)S(=O)(=O)c3ccc(F)c(Cl)c3)CC2)cc1 (stereo not drawn) [Compound 40, [4-({[(3-chloro-4-fluorophenyl)sulfonyl]benzylamino}methyl)cyclohexyl]-N-[(4-methylphenyl)methyl]carboxamide] gave a fold induction at 10 µM of 2.6.
With Cc1ccc(CNC(=O)C2CCC(CN(Cc3ccccc3)S(=O)(=O)c3cc(Cl)cc(Cl)c3)CC2)cc1 (stereo not drawn) [Compound 32, [4-({[(3,5-dichlorophenyl)sulfonyl]benzylamino}methyl)cyclohexyl]-N-[(4-methylphenyl)methyl]carboxamide] the fold induction at 10 µM was 4.
For Cc1ccc(CNC(=O)C2CCC(CN(Cc3ccccc3)S(=O)(=O)c3cccc(Cl)c3)CC2)cc1 (stereo not drawn) [Compound 20, [4-({[(3-chlorophenyl)sulfonyl]benzylamino}methyl)cyclohexyl]-N-[(4-methylphenyl)methyl]carboxamide], the fold induction at 10 µM was 4.3.
Work on Cc1ccc(CNC(=O)C2CCC(CN(Cc3ccccc3)S(=O)(=O)c3ccc(C)c(Cl)c3)CC2)cc1 (stereo not drawn) [Compound 25, [4-({[(3-chloro-4-methylphenyl)sulfonyl]benzylamino}methyl)cyclohexyl]-N-[(4-methylphenyl)methyl]carboxamide] yielded a fold induction at 10 µM of 3.5.
In the case of COc1ccc(S(=O)(=O)N(Cc2ccccc2)CC2CCC(C(=O)NCc3ccc(C)cc3)CC2)cc1OC (stereo not drawn) [Compound 18, [4-({[(3,4-dimethoxyphenyl)sulfonyl]benzylamino}methyl)cyclohexyl]-N-[(4-methylphenyl)methyl]carboxamide], the fold induction at 10 µM is reported as 1.6.
In the case of Cc1ccc(CNC(=O)C2CCC(CN(Cc3ccccc3)S(=O)(=O)c3ccccc3C(F)(F)F)CC2)cc1 (stereo not drawn) [Compound 35, N-[(4-methylphenyl)methyl]{4-[(benzyl{[2-(trifluoromethyl)phenyl]sulfonyl}amino)methyl]cyclohexyl}carboxamide], the fold induction at 10 µM is reported as 6.1.
For CC(=O)Nc1ccc(S(=O)(=O)N(Cc2ccccc2)CC2CCC(C(=O)NCc3ccc(C)cc3)CC2)cc1 (stereo not drawn) [Compound 8, N-[4-({[(4-{N-[(4-methylphenyl)methyl]carbamoyl}cyclohexyl)methyl]benzylamino}sulfonyl)phenyl]acetamide], the fold induction at 10 µM was 3.1.
Cc1ccc(CNC(=O)C2CCC(CN(Cc3ccccc3)S(=O)(=O)c3ccc(C(C)(C)C)cc3)CC2)cc1 (stereo not drawn) [Compound 13, {4-[({[4-(tert-butyl)phenyl]sulfonyl}benzylamino)methyl]cyclohexyl}-N-[(4-methylphenyl)methyl]carboxamide] was tested, and the fold induction at 10 µM was 2.7.
Cc1ccc(CNC(=O)C2CCC(CN(Cc3ccccc3)S(=O)(=O)c3ccccc3Cl)CC2)cc1 (stereo not drawn) [Compound 22, [4-({[(2-chlorophenyl)sulfonyl]benzylamino}methyl)cyclohexyl]-N-[(4-methylphenyl)methyl]carboxamide] was tested, and the fold induction at 10 µM was 4.1.
